This passage reports IC50 results from US20090226500A1, “SUTURES AND ANTI-SCARRING AGENTS” (Angiotech Pharmaceuticals, Inc, priority 2006, published 2009).

Molecules are shown by their SMILES. Like-named read-outs stand apart in the source and are kept apart here.

Experiment [1] deals with MCP-1 production by THP-1 cells. Nature of the experiment: MCP-1 production by macrophages. To be noted: read-out: IC50 MCP-1 production. The experiment is classed as cell-based, human. The protocol: The human macrophage cell line, THP-1 was plated in a 12 well plate such that each well contains 1×10^6 cells in 2 ml of media containing 10% FCS. Opsonized zymosan was prepared by resuspending 20 mg of zymosan A in 2 ml of ddH2O and homogenizing until a uniform suspension was obtained. Homogenized zymosan was pelleted at 250 g and resuspended in 4 ml of human serum for a final concentration of 5 mg/ml and incubated in a 37° C. water bath for 20 minutes to enable opsonization. Geldanamycin was prepared in DMSO at a concentration of 10^−2 M and serially diluted 10-fold to give a range of stock concentrations (10^−8 M to 10^−2 M).
THP-1 cells were stimulated to produce MCP-1 by the addition of 1 mg/ml opsonized zymosan. […] was added to THP-1 cells by directly adding DMSO stock solutions, prepared earlier, at a 1/1000 dilution, to each well. Each drug concentration was tested in triplicate wells. Plates were incubated at 37° C. for 24 hours.
After a 24-hour stimulation, supernatants were collected to quantify MCP-1 production. MCP-1 concentrations in the supernatants were determined by ELISA using recombinant human MCP-1 to obtain a standard curve. A 96-well MaxiSorb plate was coated with 100 μL of anti-human MCP-1 Capture Antibody diluted in Coating Buffer (0.1M sodium carbonate pH 9.5) overnight at 4° C. The dilution of Capture Antibody used was lot-specific and was determined empirically. Capture antibody was then aspirated and the plate washed 3 times with Wash Buffer (PBS, 0.05% TWEEN-20). Plates were blocked for 1 hour at room temperature with 200 μL/well of Assay Diluent (PBS, 10% FCS pH 7.0). After blocking, plates were washed 3 times with Wash Buffer. […] Sample supernatants and standards were assayed in triplicate and were incubated at room temperature for 2 hours after addition to the plate coated with Capture Antibody. The plates were washed 5 times and incubated with 100 μL of Working Detector (biotinylated anti-human MCP-1 detection antibody+avidin-HRP) for 1 hour at room temperature. Following this incubation, the plates were washed 7 times and 100 μL of Substrate Solution (tetramethylbenzidine, H2O2) was added to plates and incubated for 30 minutes at room temperature. […] Mean absorbance was determined from triplicate data readings and the mean background was subtracted. MCP-1 concentration values were obtained from the standard curve.

Experiment [2] has as its system TNFα production by THP-1 cells. In words: TNF-alpha production by macrophages. The experiment is classed as cell-based, human. To be noted: read-out: IC50 TNFα production. The protocol:
The human macrophage cell line, THP-1 was plated in a 12-well plate such that each well contains 1×10^6 cells in 2 ml of media containing 10% FCS. Opsonized zymosan was prepared by resuspending 20 mg of zymosan A in 2 ml of ddH2O and homogenizing until a uniform suspension was obtained. Homogenized zymosan was pelleted at 250 g and resuspended in 4 ml of human serum for a final concentration of 5 mg/ml and incubated in a 37° C. water bath for 20 minutes to enable opsonization.
THP-1 cells were stimulated to produce TNFα by the addition of 1 mg/ml opsonized zymosan. […] Each drug concentration was tested in triplicate wells. Plates were incubated at 37° C. for 24 hours.
After a 24-hour stimulation, supernatants were collected to quantify TNFα production. TNFα concentrations in the supernatants were determined by ELISA using recombinant human TNFα to obtain a standard curve A 96-well MaxiSorb plate was coated with 100 μL of anti-human TNFα Capture Antibody diluted in Coating Buffer (0.1M sodium carbonate pH 9 5) overnight at 4° C. The dilution of Capture Antibody used was lot-specific and was determined empirically. Capture antibody was then aspirated and the plate washed 3 times with Wash Buffer (PBS, 0.05% TWEEN-20) Plates were blocked for 1 hour at room temperature with 200 μL/well of Assay Diluent (PBS, 10% FCS pH 7.0). After blocking, plates were washed 3 times with Wash Buffer. […] Sample supernatants and standards were assayed in triplicate and were incubated at room temperature for 2 hours after addition to the plate coated with Capture Antibody. The plates were washed 5 times and incubated with 100 μL of Working Detector (biotinylated anti-human TNFα detection antibody+avidin-HRP) for 1 hour at room temperature. Following this incubation, the plates were washed 7 times and 100 μL of Substrate Solution (tetramethylbenzidine, H2O2) was added to plates and incubated for 30 minutes at room temperature. […] Mean absorbance was determined from triplicate data readings and the mean background was subtracted. TNFα concentration values were obtained from the standard curve.

The subject of another experiment is human fibroblasts. In words: Cell proliferation of fibroblasts. Conditions: Fibroblast, 72 hours, CYQUANT, read-out: IC50 cell proliferation of fibroblasts. The experiment is classed as cell-based. The protocol: Fibroblasts at 70-90% confluency are trypsinized, replated at 600 cells/well in media in 96-well plates and allowed to attachment overnight. […] Each drug concentration is tested in triplicate wells. Plates containing fibroblasts and drug substance are incubated at 37° C. for 72 hours.
To terminate the assay, the media is removed by gentle aspiration. A 1/400 dilution of CYQUANT 400×GR™ dye indicator (Molecular Probes; Eugene, Oreg.) is added to 1× Cell Lysis buffer, and 200 μL of the mixture is added to the wells of the plate. Plates are incubated at room temperature, protected from light for 3-5 minutes.

Another experiment concerns Smooth muscle cells. In words: Proliferation of smooth muscle cells. The experiment is classed as cell-based. Conditions: read-out: IC50 proliferation of smooth muscle cells. The protocol:
Smooth muscle cells at 70-90% confluency were trypsinized, replated at 600 cells/well in media in 96-well plates and allowed to attachment overnight. Paclitaxel was prepared in DMSO at a concentration of 10^−2 M and diluted 10-fold to give a range of stock concentrations (10^−8 M to 10^−2 M). […] Each drug concentration was tested in triplicate wells. Plates containing cells and paclitaxel were incubated at 37° C. for 72 hours.
To terminate the assay, the media was removed by gentle aspiration A 1/400 dilution of CYQUANT 400×GR dye indicator (Molecular Probes; Eugene, Oreg.) was added to 1× Cell Lysis buffer, and 200 μL of the mixture was added to the wells of the plate. Plates were incubated at room temperature, protected from light for 3-5 minutes.

Where [3] appears, read: THP-1 cells stimulated with opsonized zymosan, 24 hours.
[4] abbreviates: Homo sapiens, THP-1 cells stimulated with opsonized zymosan, 24 hours.

For `C=C1/C(=C\C=C2/CCC[C@]3(C)[C@@H]([C@H](C)CCCC(C)(C)O)CC[C@@H]23)C[C@@H](O)C[C@@H]1O` [1-α-25 dihydroxy vitamin D3], the IC50 in experiment [1] (setting [3]) was found to be 1 nM.
Turning to `CCCCC/C=C/C=C1/C(=O)C=C[C@@H]1C/C=C\CCCC(=O)O` [15-deoxy prostaglandin J2, 15-Deoxy-D12,14-prostaglandin J2], the IC50 worked out at 742 nM in experiment [2] (setting [3]) and 724 nM in experiment [1] (setting [3]).
Turning to `CO[C@H]1/C=C\C=C(/C)C(=O)NC2=CC(=O)C(NCCN(C)C)=C(C[C@@H](C)C[C@H](OC)[C@H](O)[C@@H](C)/C=C(\C)[C@@H]1OC(N)=O)C2=O` [17-DMAG, 17-dimethylaminoethylamino-17-demethoxy-geldanamycin], the IC50 was 0.1 to 10 nM with human fibroblasts and 17 nM in the experiment on Smooth muscle cells (72 hours, CYQUANT).
On to `CC1(C)CN[Se]c2ccccc21` [BXT-51072], for which, in experiment [1] (setting [3]), the IC50 worked out at 683 nM.
For the compound `Cc1ccc(S(=O)(=O)/C=C/C#N)cc1` [Bay 11-7082], the IC50 in experiment [2] (setting [3]) came out at 810 nM.
Turning to `O=C(O)CCCCN(CCc1ccccc1OCc1ccc(CCc2ccccc2)cc1)Cc1ccc(C(=O)O)cc1` [Bay 58-2667], in experiment [1] (setting [3]), the IC50 came to 216 nM.
`COc1c(C)c2c(c(O)c1C/C=C(\C)CCC(=O)OCCN1CCOCC1)C(=O)OC2` [Mycophenolate mofetil]: the IC50 in experiment [2] (setting [4]) was 792 nM; with human fibroblasts, 600 to 1200 nM; in experiment [1] (setting [4]) it was 217 nM; in the experiment with Smooth muscle cells (72 hours, CYQUANT), 463 nM.
Regarding `Fc1ccc(-c2nc3n(c2-c2ccncc2)CCS3)cc1` [SKF 86002], the IC50 in experiment [2] (setting [4]) is 831 nM.
In the case of `CN(C)CCCN1c2ccccc2Sc2ccc(Cl)cc21` [chlorpromazine], the IC50 came to 6 nM in experiment [2] (setting [4]) and 0.011 nM in experiment [1] (setting [4]).
With `C/C1=C/C[C@@H](/C(C)=C/c2csc(C)n2)OC(=O)C[C@H](O)C(C)(C)C(=O)[C@H](C)[C@@H](O)[C@@H](C)CCC1` [epothilone D], the IC50 was 10 to 100 nM in the experiment with human fibroblasts and 5 nM with Smooth muscle cells (72 h).
For `COC1=C2C[C@@H](C)C[C@H](OC)[C@H](O)[C@@H](C)/C=C(\C)[C@H](OC(N)=O)[C@@H](OC)/C=C\C=C(/C)C(=O)NC(=CC1=O)C2=O` [geldanamycin], the IC50 was 14 nM in experiment [2] (setting [4]); 0.1 to 10 nM with human fibroblasts; 5 nM in the experiment on Smooth muscle cells (72 hours, CYQUANT).
For `Nc1ccn([C@@H]2O[C@H](CO)[C@@H](O)C2(F)F)c(=O)n1` [gemcitabine], the IC50 is 50 nM in experiment [1] (setting [3]) and 9 nM with Smooth muscle cells (72 hours, CYQUANT).
Consider `CO[C@@]12[C@H](COC(N)=O)C3=C(C(=O)C(C)=C(N)C3=O)N1C[C@@H]1N[C@@H]12` [mitomycin C], for which the IC50 in the experiment with Smooth muscle cells (72 hours, CYQUANT) was 53 nM.
On to `COC(=O)[C@@H]1c2cc3c(c(O)c2[C@@H](O[C@@H]2O[C@@H](C)[C@H](OC)[C@@](C)(OC)[C@H]2OC)C[C@]1(C)O)C(=O)c1c(O)cc2c(c1C3=O)O[C@@H]1O[C@@]2(C)[C@H](O)[C@@H](N(C)C)[C@@H]1O` [nogalamycin], for which, in the experiment with Smooth muscle cells (72 hours, CYQUANT), the IC50 was 49 nM.
`COc1cc([C@@H]2c3cc4c(cc3[C@H](O)[C@H]3COC(=O)[C@H]23)OCO4)cc(OC)c1OC` [podophyllotoxin]: the IC50 in experiment [2] (Homo sapiens, THP-1, 24 h) is 75 nM; with human fibroblasts it was 100 to 600 nM; in experiment [1] (Homo sapiens, THP-1, 24 h), 28 nM; in the experiment on Smooth muscle cells (72 h), 21 nM.
With `COc1ccc(C[C@H](N)C(=O)N[C@H]2[C@@H](O)[C@H](n3cnc4c(N(C)C)ncnc43)O[C@@H]2CO)cc1` [puromycin], the IC50 is 161 nM in experiment [1] (setting [3]) and 384 nM in the experiment on Smooth muscle cells (72 hours, CYQUANT).
For `CC[C@]1(O)C[C@@H]2CN(CCc3c([nH]c4ccccc34)[C@@](C(=O)OC)(c3cc4c(cc3OC)N(C)[C@H]3[C@@](O)(C(=O)OC)[C@H](OC(C)=O)[C@]5(CC)C=CCN6CC[C@]43[C@@H]65)C2)C1` [vinblastine], the IC50 in experiment [2] (setting [3]) stood at 65 nM; in experiment [1] (setting [3]) it was 19 nM; with Smooth muscle cells (72 hours, CYQUANT), 3 nM.
In the case of `CC[C@]1(O)C[C@H]2CN(CCc3c([nH]c4ccccc34)[C@@](C(=O)OC)(c3cc4c(cc3OC)N(C=O)[C@H]3[C@@](O)(C(=O)OC)[C@H](OC(C)=O)[C@]5(CC)C=CCN6CC[C@]43[C@@H]65)C2)C1` [vincristine], the IC50 is 16 nM in experiment [1] (setting [3]) and 9 nM with Smooth muscle cells (72 hours, CYQUANT).
As for `CCC1=C[C@@H]2CN(C1)Cc1c([nH]c3ccccc13)[C@@](C(=O)OC)(c1cc3c(cc1OC)N(C)[C@H]1[C@@](O)(C(=O)OC)[C@H](OC(C)=O)[C@]4(CC)C=CCN5CC[C@]31[C@@H]54)C2` [vinorelbine], the IC50 in experiment [2] (setting [3]) came to 605 nM; in experiment [1] (setting [3]), 69 nM; with Smooth muscle cells (72 hours, CYQUANT), 15 nM.
